ChEMBL document CHEMBL2150958, “Tuned-Affinity Bivalent Ligands for the Characterization of Opioid Receptor Heteromers” (ACS Med Chem Lett, 2012)

Tests used:
Mu-type opioid receptor = Mu-type opioid receptor (Mus musculus, UniProt P42866); assay: Displacement of [3H]-DAMGO from mouse MOR expressed in HEK293 cells; format: cell-based
[1] = target: T1, Opioid receptors; mu and delta (Mus musculus, UniProt P42866+P32300); assay: Displacement of [3H]-DAMGO from mouse MOR/DOR expressed in HEK293 cells; format: cell-based
[2] = target: T1, Opioid receptors; mu and delta; assay: Displacement of [3H]-DPDPE from mouse MOR/DOR expressed in HEK293 cells; format: cell-based
[3] = target: Delta-type opioid receptor (Mus musculus, UniProt P32300); assay: Displacement of [3H]-DPDPE from mouse DOR expressed in HEK293 cells; format: cell-based
Sequence of Delta-type opioid receptor (P32300 whole entry): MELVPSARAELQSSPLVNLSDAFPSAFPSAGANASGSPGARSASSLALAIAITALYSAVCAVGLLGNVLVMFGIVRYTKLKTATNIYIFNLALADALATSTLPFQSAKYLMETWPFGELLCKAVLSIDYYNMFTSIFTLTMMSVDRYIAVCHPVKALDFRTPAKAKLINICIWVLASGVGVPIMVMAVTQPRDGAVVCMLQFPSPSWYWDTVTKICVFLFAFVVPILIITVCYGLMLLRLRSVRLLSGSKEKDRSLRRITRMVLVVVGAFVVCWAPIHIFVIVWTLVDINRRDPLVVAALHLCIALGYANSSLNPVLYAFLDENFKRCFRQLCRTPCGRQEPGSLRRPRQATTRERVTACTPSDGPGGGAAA

Mus musculus = organism: Mus musculus; assay: Selectivity ratio of Ki for mouse DOR to Ki for mouse MOR/DOR

Sequence of Mu-type opioid receptor (P42866 whole entry): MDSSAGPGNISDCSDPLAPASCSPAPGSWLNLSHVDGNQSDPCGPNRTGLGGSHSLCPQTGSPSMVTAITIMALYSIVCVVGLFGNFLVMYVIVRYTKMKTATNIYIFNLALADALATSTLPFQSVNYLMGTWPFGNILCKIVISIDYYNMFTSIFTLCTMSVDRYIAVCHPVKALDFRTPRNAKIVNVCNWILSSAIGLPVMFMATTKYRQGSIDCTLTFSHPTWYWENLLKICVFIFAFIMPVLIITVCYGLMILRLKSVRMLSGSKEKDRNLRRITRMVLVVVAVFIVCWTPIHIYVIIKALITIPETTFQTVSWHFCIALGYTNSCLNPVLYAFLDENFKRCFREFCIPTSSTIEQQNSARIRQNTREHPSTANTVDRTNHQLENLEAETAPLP

Structure (SMILES) | Ki (Mu-type opioid receptor) | pKi [1] | pKi [2] | Ki [3] | Ratio Ki (Mus musculus)
CNC(=O)COCC(=O)NCCCCCNC(=O)COCC(=O)N[C@H]1CC[C@@]2(O)[C@H]3Cc4ccc(O)c5c4[C@@]2(CCN3C)[C@H]1O5 | 0.0224 µM | 6.9 | – | – | –
Cl.Oc1ccc2c3c1O[C@H]1c4[nH]c5ccccc5c4C[C@@]4(O)[C@@H](C2)N(CC2CC2)CC[C@]314 [NALTRINDOLE HYDROCHLORIDE] | 0.0166 µM | 8.46 | 8.26 | 0.00263 µM | –
CCN(CC)C(=O)c1ccc(C(=C2CCNCC2)c2c(C)cc(NC(=O)COCC(=O)NCCCCCNC(=O)COCC(=O)N[C@@H]3CC[C@@]4(O)[C@H]5Cc6ccc(O)c7c6[C@@]4(CCN5CC4CC4)[C@H]3O7)cc2C)cc1.Cl | < 0.001 µM | > 9 | 8.6 | 0.02 µM | 10
CCN(CC)C(=O)c1ccc(C(=C2CCNCC2)c2c(C)cc(NC(=O)COCC(=O)NCCCCCNC(=O)COCC(=O)NC)cc2C)cc1.Cl | 0.55 µM | 5.92 | 5.78 | 2.88 µM | –
CNC(=O)COCC(=O)NCCCCCNC(=O)COCC(=O)N[C@@H]1CC[C@@]2(O)[C@H]3Cc4ccc(O)c5c4[C@@]2(CCN3CC2CC2)[C@H]1O5 | 0.000324 µM | 8.38 | 7.79 | 0.0309 µM | –
Nc1cccc2c3c([nH]c12)[C@@H]1Oc2c(OCCc4ccccc4)ccc4c2[C@@]12CCN(CC1CC1)[C@H](C4)[C@]2(O)C3 | 0.12 µM | 6.94 | 7.46 | 0.0912 µM | –
CN1CC[C@]23c4c5ccc(O)c4O[C@H]2[C@@H](NC(=O)COCC(=O)NCCCCCNC(=O)COCC(=O)Nc2cccc4c6c([nH]c24)[C@@H]2Oc4c(OCCc7ccccc7)ccc7c4[C@@]24CCN(CC2CC2)[C@H](C7)[C@]4(O)C6)CC[C@@]3(O)[C@H]1C5.Cl | 0.00977 µM | 8.21 | 7.34 | 0.204 µM | –
